Assay results as given in patent publication EP0596112A1, “NOVEL MACROLIDE COMPOUND AND PRODUCTION THEREOF” (YAMANOUCHI PHARMACEUTICAL CO. LTD., priority 1991, dated 1992).
≈ marks a conversion by molar mass, not a printed value.

Experiments:
[1] = system: Staphylococcus aureus FDA 209P JC-1; assay: In vitro antibacterial activity (MIC), agar plate dilution method using Müller-Hinton medium; format: cell-based; settings: FDA209P
Protocol: (§1) In vitro antibacterial activity (MIC) The antibacterial spectrum of the macrolide compound of the present invention was determined by the agar plate dilution method using Müller-Hinton medium which is commonly used for this purpose.

[2] = system: Escherichia coli 0-1; assay: as above; format: cell-based; settings: 01
Protocol: as §1

[3] = system: Enterococcus faecalis IID682; assay: as above; format: cell-based
Protocol: as §1

[4] = system: Streptococcus pneumoniae IID552; assay: as above; format: cell-based
Protocol: as §1

[5] = system: Klebsiella pneumoniae ATTCC10031; assay: as above; format: cell-based
Protocol: as §1

[6] = system: Streptococcus pyogenes Cook; assay: as above; format: cell-based
Protocol: as §1

[7] = system: Pseudomonas aeruginosa IID5142; assay: as above; format: cell-based
Protocol: as §1

[8] = system: Staphylococcus epidermidis IID866; assay: as above; format: cell-based
Protocol: as §1

[9] = system: Proteus vulgalis OX-19; assay: as above; format: cell-based
Protocol: as §1

[10] = system: Serratia marcescens IID620; assay: as above; format: cell-based
Protocol: as §1

[11] = Solubility (physicochemical properties)
[12] = system: Staphylococcus aureus FDA 209P; assay: In vitro antibacterial activity (MIC), agar plate dilution method using Müller-Hinton medium; format: cell-based; settings: FDA209P
Protocol: as §1

[13] = in methanol, ethanol, acetone, ethyl acetate, benzene, toluene and chloroform

MIC [1] | MIC [2] | MIC [3] | MIC [4] | MIC [5] | MIC [6] | MIC [7] | MIC [8] | MIC [9] | MIC [10] | Solubility [11, 13] | Solubility ([11]; in water and hexane) | MIC [12] | Compound
3.13 µg/mL (≈ 3.56 µM) | > 50 µg/mL | > 50 µg/mL | > 50 µg/mL | > 50 µg/mL | 0.78 µg/mL (≈ 0.887 µM) | > 50 µg/mL | 1.56 µg/mL (≈ 1.77 µM) | > 50 µg/mL | > 50 µg/mL | Soluble | only sparingly soluble |  | COC1C(OCC(C)C2OC(=O)C(C)C(OC3CC(C)(O)C(O)C(C)O3)C(C)C(OC3OC(C)CC(=O)C3O)C(C)CC(C)(O)C(=O)C(C)C(O)C2C)OC(C)C(O)C1OC (stereo not drawn) [YL-02107Q-D substance]
 | > 100 µg/mL | 1.56 µg/mL (≈ 1.62 µM) | 3.13 µg/mL (≈ 3.25 µM) | > 100 µg/mL | 0.39 µg/mL (≈ 0.405 µM) | > 100 µg/mL | 0.78 µg/mL (≈ 0.81 µM) | > 100 µg/mL | > 100 µg/mL | Soluble | only sparingly soluble | 0.78 µg/mL (≈ 0.81 µM) | COC1C(OCC(C)C2OC(=O)C(C)C(OC3CC(C)(O)C(O)C(C)O3)C(C)C(OC3OC(C)CC(=O)C3O)C(C)CC(C)(O)C(=O)C(C)C(OC(=O)CC(C)C)C2C)OC(C)C(O)C1OC (stereo not drawn) [YL-02107Q substance]
3.13 µg/mL (≈ 3.3 µM) | > 50 µg/mL | 25 µg/mL (≈ 26.3 µM) | 50 µg/mL (≈ 52.7 µM) | > 50 µg/mL | 0.78 µg/mL (≈ 0.822 µM) | > 50 µg/mL | 3.13 µg/mL (≈ 3.3 µM) | > 50 µg/mL | > 50 µg/mL | Soluble | only sparingly soluble |  | COC1C(OCC(C)C2OC(=O)C(C)C(OC3CC(O)C(O)C(C)O3)C(C)C(OC3OC(C)CC(=O)C3O)C(C)CC(C)(O)C(=O)C(C)C(OC(=O)CC(C)C)C2C)OC(C)C(O)C1OC (stereo not drawn) [YL-02107Q-B substance]
